Reference: paper PMC7024302, “Ultrashort Cationic Lipopeptides–Effect of N-Terminal Amino Acid and Fatty Acid Type on Antimicrobial Activity and Hemolysis” (Molecules, 2020)
In brackets after ≈: the same amount, converted by molar mass. Residues, ends and D or L forms follow the SMILES beside them.

What was measured:
[1] = Determination of peptide hydrophobicity with RP-HPLC (adjusted retention time); assay type: physicochemical; settings: for tR’: Table 3, adjusted retention time as hydrophobicity
Experimental: To determine peptide hydrophobicity, the Waters Alliance e2695 system with a Waters 2998 PDA Detector (software-Empower®3) was used. All analyses were carried out on a Phenomenex Luna C18(2) column (3.0 × 100 mm, 5 µm particle size, 100 Å pore size). The peptides were dissolved in water (0.1% TFA, v/v) to obtain a concentration of 1 g/L. UV detection at 214 nm was used, and aliquots (10 µL) were eluted with a linear 10–55% acetonitrile gradient in deionized water over 60 min at 25.0 ± 0.1 °C. The mobile phase flow rate was 0.5 mL/min. Both eluents contained 0.1% (v/v) of TFA. Each peptide sample was analyzed in triplicate.

S. aureus ATCC 25923 = assay type: cell-based, Staphylococcus aureus; settings: ATCC 25923, 18 h
Excerpt: (§1) The Acinetobacter baumannii ATCC BAA-1605, Candida albicans ATCC 10231, Enterococcus faecium ATCC 700221, Klebsiella aerogenes ATCC 13048 (previously known as Enterobacter aerogenes), Klebsiella pneumoniae ATCC 700603, Pseudomonas aeruginosa ATCC 9027, Staphylococcus aureus ATCC 25923 and MRSA ATCC 33591, were acquired from the American Type Culture Collection (ATCC). Before running the tests, beads with cryo-protected microorganisms were transferred into fresh MHB (BioMaxima, Lublin, Poland) for bacteria or RPMI-1640 for fungi and incubated for 24 h at 37 °C. Then, the culture was seeded on the Mueller-Hinton agar (MHA) plates (BioMaxima, Lublin, Poland) for bacteria or Sabouraud dextrose agar (SDA) plates (BioMaxima, Lublin, Poland) for fungi and incubated as just mentioned. Cell densities for all assays were adjusted spectrophotometrically (Multiskan™ GO Microplate Spectrophotometer, Thermo Fisher Scientific, Vantaa, Finland) at 600 nm for bacteria and at 530 nm for fungi.
(§2) The MICs were determined by broth microdilution method according to the Clinical and Laboratory Standard Institute guidelines. For this purpose initial inoculums of bacteria (5 × 10^5 CFU/mL) in MHB (BioMaxima, Lublin, Poland) and fungi (2 × 10^3 CFU/mL) in RPMI-1640 with 2% D-glucose (Merck, Darmstadt, Germany) prepared with MOPS (pH 7.0 ± 0.1 at 25 °C; Merck, Darmstadt, Germany) were exposed to the ranging concentration of lipopeptides (0.5–256 µg/mL) and incubated at 37 °C for 18 h and 24 h respectively. The experiments were conducted on 96-well microtiter polystyrene plates (Kartell, Italy). The MIC was taken as the lowest peptide concentration at which a noticeable growth of microorganisms was inhibited. All experiments were conducted in triplicate.

[2] = test system: S. aureus ATCC 33591 (MRSA); assay type: cell-based, Staphylococcus aureus; settings: ATCC 33591, 18 h
Excerpt: as §1, §2

P. aeruginosa ATCC 9027 = assay type: cell-based, Pseudomonas aeruginosa; settings: ATCC 9027, 18 h
Excerpt: as §1, §2

C. albicans ATCC 10231 = assay type: cell-based, Candida albicans; settings: ATCC 10231, 24 h, pH 7
Excerpt: as §1, §2

[3] = test system: human red blood cells (hRBCs); assay type: cell-based; settings: red cells of human, 1 h
Experimental: The hemolysis assay was performed as described earlier according to the method of Avrahami and Shai. Fresh human red blood cells (hRBCs) with anticoagulant (EDTA) were rinsed three times with a PBS (Merck, Darmstadt, Germany) by centrifugation at 800× g for 10 min and resuspended in PBS. Lipopeptides were serially diluted on 96-well microtiter polystyrene plate and hRBCs were added to reach final volume of 100 µL. Peptide concentration ranged between 0.5 and 256 µg/mL and final hRBCs concentration was 4% (v/v). Controls for zero hemolysis (blank) and 100% hemolysis consisted of hRBCs suspended in PBS and 1% of Triton-X 100 (Merck, Darmstadt, Germany), respectively. The plate was incubated for 1 h at 37 °C and then centrifuged (800× g, 10 min, 4 °C). Subsequently, supernatant was […] to new microtiter plates and absorbance at 540 nm were measured. All experiments were conducted in triplicate. Protocol of the study received approval from the local Bioethics Committee at the Medical University of Gdańsk (NKBBN/262/2019).

E. faecium ATCC 700221 = assay type: cell-based, Enterococcus faecium; settings: ATCC 700221, 18 h
Excerpt: as §1, §2

[4] = test system: K. pneumoniae ATCC 700603; assay type: cell-based, Klebsiella pneumoniae; settings: ATCC 700603, 18 h
Excerpt: as §1, §2

[5] = test system: A. baumannii ATCC BAA-1605; assay type: cell-based, Acinetobacter baumannii; settings: ATCC BAA-1605, 18 h
Excerpt: as §1, §2

K. aerogenes ATCC 13048 = assay type: cell-based, Klebsiella aerogenes; settings: ATCC 13048, 18 h
Excerpt: as §1, §2

[6] = RP-HPLC C18, linear 10–55% acetonitrile over 60 min, 0.1% TFA, 25.0 °C, UV 214 nm, triplicate

Compound	tR’ [1, 6] [min]	MIC SA (S. aureus ATCC 25923) [µg/mL]	MIC S [2] [µg/mL]	MIC PA (P. aeruginosa ATCC 9027) [µg/mL]	MIC CA (C. albicans ATCC 10231) [µg/mL]	HC50 [3]	MIC E1 (E. faecium ATCC 700221) [µg/mL]	MIC K [4] [µg/mL]	MIC A [5] [µg/mL]	MIC E2 (K. aerogenes ATCC 13048) [µg/mL]	Adjusted retention time ([1]; Table 2, nC = carbon atoms in fatty acid chain, RP-HPLC C18, linear 10–55% acetonitrile over 60 min, 0.1% TFA, 25.0 °C, UV 214 nm, triplicate) [min]	tR’ (adjusted retention time) ([1]; Table 1 and b9, measure of hydrophobicity, RP-HPLC, Phenomenex Luna C18(2) 3.0 × 100 mm, 5 µm, linear 10–55% acetonitrile in water over 60 min, 0.1% TFA, 0.5 mL/min, 25.0 °C, UV 214 nm, peptide 1 g/L, triplicate) [min]	∆tR ([1]; tR’ of the lipopeptide minus tR’ of C10-RR-NH2 or C12-RR-NH2, same RP-HPLC conditions) [min]
CCCCCCCCCCCCCC(=O)N[C@@H](CCCNC(=N)N)C(=O)N[C@@H](CCCNC(=N)N)C(N)=O [compound 4, C14-RR-NH2, reference compound] (HELM PEPTIDE1{[CCCCCCCCCCCCCC(=O)[*:2]].R.R.[am]}$$$$V2.0)	39.79	8 (≈ 14.8 µM)	8 (≈ 14.8 µM)	32 (≈ 59.3 µM)	8 (≈ 14.8 µM)	68.43 (±1.41) µg/mL	8 (≈ 14.8 µM)	256 (≈ 474 µM)	64 (≈ 119 µM)	256 (≈ 474 µM)	–	–	–
CCCCCCCCCCCCCC(=O)N[C@@H](CCSC)C(=O)N[C@@H](CCCNC(=N)N)C(=O)N[C@@H](CCCNC(=N)N)C(N)=O [compound 50, C14-MRR-NH2] (HELM PEPTIDE1{[CCCCCCCCCCCCCC(=O)[*:2]].M.R.R.[am]}$$$$V2.0)	44.69	4 (≈ 5.96 µM)	8 (≈ 11.9 µM)	8 (≈ 11.9 µM)	4 (≈ 5.96 µM)	35.11 (±0.90) µg/mL	8 (≈ 11.9 µM)	128 (≈ 191 µM)	32 (≈ 47.7 µM)	128 (≈ 191 µM)	–	–	–
CCCCCCCCCCCC(=O)N[C@H](C(=O)N[C@@H](CCCNC(=N)N)C(=O)N[C@@H](CCCNC(=N)N)C(N)=O)[C@@H](C)CC [compound 37, C12-IRR-NH2] (HELM PEPTIDE1{[CCCCCCCCCCCC(=O)[*:2]].I.R.R.[am]}$$$$V2.0)	39.05	8 (≈ 12.8 µM)	8 (≈ 12.8 µM)	16 (≈ 25.6 µM)	16 (≈ 25.6 µM)	120.40 (±1.55) µg/mL	8 (≈ 12.8 µM)	256 (≈ 410 µM)	64 (≈ 102 µM)	256 (≈ 410 µM)	39.047	–	–
CCCCCCCCCCCC(=O)N[C@@H](Cc1ccccc1)C(=O)N[C@@H](CCCNC(=N)N)C(=O)N[C@@H](CCCNC(=N)N)C(N)=O [compound 25, C12-FRR-NH2] (HELM PEPTIDE1{[CCCCCCCCCCCC(=O)[*:2]].F.R.R.[am]}$$$$V2.0)	41.45	4 (≈ 6.07 µM)	8 (≈ 12.1 µM)	8 (≈ 12.1 µM)	8 (≈ 12.1 µM)	91.21 (±16.38) µg/mL	8 (≈ 12.1 µM)	256 (≈ 389 µM)	64 (≈ 97.1 µM)	256 (≈ 389 µM)	–	41.45	8.87
CCCCCCCCCCCCCC(=O)NCC(=O)N[C@@H](CCCNC(=N)N)C(=O)N[C@@H](CCCNC(=N)N)C(N)=O [compound 30, C14-GRR-NH2]	40.53	8 (≈ 13.4 µM)	8 (≈ 13.4 µM)	32 (≈ 53.6 µM)	16 (≈ 26.8 µM)	31.94 (±1.99) µg/mL	8 (≈ 13.4 µM)	256 (≈ 429 µM)	64 (≈ 107 µM)	256 (≈ 429 µM)	–	–	–
